Columns and labels:
Type in all cases: in vivo
Lolium [1] = experiment: Pre-emergence test; conditions: after three weeks
Experimental: (§1) [table] To produce a suitable preparation of active compound, 1 part by weight of active compound is mixed with the stated amount of solvent, the stated amount emulsifier is added and the concentrate is diluted with water to the desired concentration. Seeds of the test plants are sown in normal soil. After about 24 hours, the soil is sprayed with the preparation of active compound such that the particular amounts of active compound desired are applied per unit area. The concentration of the spray liquor is chosen such that the particular amounts of active compound desired are applied in 1000 l of water/ha. After three weeks, the degree of damage to the plants is rated in % damage in comparison to the development of the untreated controls. The figures denote: [table]

Soya bean = experiment: Pre-emergence test; conditions: after three weeks
Experimental: as §1

Sugar beet [2] = experiment: Pre-emergence test; conditions: after three weeks
Experimental: as §1

Alopecurus [3] = experiment: Pre-emergence test; conditions: after three weeks
Experimental: as §1

Veronica = experiment: Pre-emergence test; conditions: 125 g ai/ha, after three weeks
Experimental: as §1

Setaria [4] = experiment: Pre-emergence test; conditions: after three weeks
Experimental: as §1

Digitaria [5] = experiment: Pre-emergence test; conditions: 125 g ai/ha, after three weeks
Experimental: as §1

[6] = tested on: green rice leaf hopper (Nephotettix cincticeps); experiment: Nephotettix test; conditions: active compound concentration of 1000 ppm; after 6 days; rice seedlings dipped
Experimental: [table] To produce a suitable preparation of active compound, 1 part by weight of active compound is mixed with the stated amounts of solvent and emulsifier, and the concentrate is diluted with emulsifier-containing, water to the desired concentration. Rice seedlings (Oryza sativa) are treated by being dipped into the preparation of active compound of the desired concentrated and are populated with the green rice leaf hopper (Nephotettix cincticeps) while the leaves are still moist. After the desired period of time, the kill in % is determined. 100% means that all leaf hoppers have been killed; 0% means that none of the leaf hoppers have been killed.

Sugar beet [7] = experiment: Post-emergence test; conditions: after three weeks
Experimental: (§2) [table] To produce a suitable preparation of active compound, 1 part by weight of active compound is mixed with the stated amount of solvent, the stated amount of emulsifier is added and the concentrate is diluted with water to the desired concentration. Test plants of a height of 5-15 cm are sprayed with the preparation of active compound such that the particular amounts of active compound desired are applied per unit area. The concentration of the spray liquor is chosen such that the particular amount of active compound desired is applied in 1000 l of water/ha. After three weeks, the degree of damage to the plants is rated in % damage in comparison to the development of the untreated control. The figures denote: [table]

Avena fatua [8] = experiment: Post-emergence test; conditions: after three weeks
Experimental: as §2

Alopecurus [9] = experiment: Post-emergence test; conditions: after three weeks
Experimental: as §2

Cotton = experiment: Post-emergence test; conditions: after three weeks
Experimental: as §2

Setaria [10] = experiment: Post-emergence test; conditions: after three weeks
Experimental: as §2

Digitaria [11] = experiment: Post-emergence test; conditions: after three weeks
Experimental: as §2

[12] = tested on: peach aphids (Myzus persicae); experiment: Myzus test; conditions: active compound concentration of 1000 ppm; after 6 days; infested cabbage leaves dipped
Experimental: [table] To produce a suitable preparation of active compound, 1 part by weight of active compound is mixed with the stated amounts of solvent and emulsifier, and the concentrate is diluted with emulsifier-containing water to the desired concentration. Cabbage leaves (Brassica oleracea) which are heavily infested by the peach aphids (Myzus persicae) are treated by being dipped into the preparation of active compound of the desired concentration. After the desired period of time, the kill in % is determined. 100% means that all aphids have been killed; 0% means that none of the aphids have been killed.

Avena fatua [13] = experiment: Pre-emergence test; conditions: after three weeks
Experimental: as §1

Echinochloa [14] = experiment: Pre-emergence test; conditions: 60 g ai/ha, after three weeks
Experimental: as §1

Sorghum = experiment: Post-emergence test; conditions: after three weeks
Experimental: as §2

Lolium [15] = experiment: Post-emergence test; conditions: after three weeks
Experimental: as §2

white fly Bemisia tabaci = experiment: Bemisia test; conditions: active compound concentration of 1000 ppm; after 10 days; infested cotton plants dipped
Experimental: [table] To produce a suitable preparation of active compound, 1 part by weight of active compound is mixed with the stated amounts of solvent and emulsifier, and the concentrate is diluted with emulsifier-containing water to the desired concentrations. Cotton plants (Gossypium hirsutum) which are infested by eggs, larvae and pupae of the white fly Bemisia tabaci are dipped into a preparation of active compound of the desired concentration. After the desired period of time, the kill in % is determined. 100% means that all animals have been killed; 0% means that none of the animals have been killed.

Bromus = experiment: Pre-emergence test; conditions: after three weeks
Experimental: as §1

Maize = experiment: Pre-emergence test; conditions: after three weeks
Experimental: as §1

Wheat [16] = experiment: Pre-emergence test; conditions: 60 g ai/ha, after three weeks
Experimental: as §1

Echinochloa [17] = experiment: Post-emergence test; conditions: after three weeks
Experimental: as §2

[18] = tested on: caterpillars of the owlet moth (Plutella xylostella); experiment: Plutella test; conditions: active compound concentration of 1000 ppm; after 7 days; cabbage leaves dipped
Experimental: (§3) [table] To produce a suitable preparation of active compound, 1 part by weight of active compound is mixed with the stated amounts of solvent and emulsifier, and the concentrate is diluted with emulsifier-containing water to the desired concentration. Cabbage leaves (Brassica oleracea) are treated by being dipped into the preparation of active compound of the desired concentration and are populated with caterpillars of the owlet moth (Plutella xylostella) while the leaves are still moist. After the desired period of time, the kill in % is determined. 100% means that all caterpillars have been killed; 0% means that none of the caterpillars have been killed.

[19] = tested on: greenhouse red spider mite (Tetranychus urticae); experiment: Tetranychus test (OP-resistant/dip treatment); conditions: active compound concentration of 1000 ppm; after 7 days; infested bean plants dipped
Experimental: [table] To produce a suitable preparation of active compound, 1 part by weight of active compound is mixed with the stated amounts of solvent and emulsifier, and the concentrate is diluted with emulsifier-containing water to the desired concentration. Bean plants (Phaseolus vulgaris) which are heavily infested by all stages of the greenhouse red spider mite (Tetranychus urticae) are dipped into a preparation of active compound of the desired concentration. After the desired period of time, the effect in % is determined. 100% means that all spider mites have been killed; 0% means that none of the spider mites have been killed.

Wheat [20] = experiment: Post-emergence test; conditions: after three weeks
Experimental: as §2

[21] = tested on: larvae of the mustard beetle (Phaedon cochleariae); experiment: Phaedon larvae test; conditions: active compound concentration of 1000 ppm; after 7 days; cabbage leaves dipped
Experimental: as §3, with “with larvae” for “with caterpillars”, “the mustard beetle (Phaedon cochleariae)” for “the owlet moth (Plutella xylostella)”, “all beetle larvae” for “all caterpillars”, “the beetle larvae” for “the caterpillars”

## CCc1cc(C)cc(C)c1C1=C(O)C2(CCC(C)CC2)NC1=O (centres unmarked) [Example I-1-a-9]
Lolium [1]; 125 g ai/ha
  % damage Lolium: 100%
Soya bean; 125 g ai/ha
  % damage Soya bean: 0%
Sugar beet [2]; 125 g ai/ha
  % damage Sugar beet: 0%
Alopecurus [3]; 125 g ai/ha
  % damage Alopecurus: 100%
Veronica
  % damage Veronica: 90%
Setaria [4]; 125 g ai/ha
  % damage Setaria: 100%
Digitaria [5]
  % damage Digitaria: 100%
[6]
  kill in %: 100%
Sugar beet [7]; 15 g ai/ha
  % damage Sugar beet: 10%
Avena fatua [8]; 15 g ai/ha
  % damage Avena fatua: 95%
Alopecurus [9]; 15 g ai/ha
  % damage Alopecurus: 100%
Cotton; 15 g ai/ha
  % damage Cotton: 0%
Setaria [10]; 15 g ai/ha
  % damage Setaria: 100%
Digitaria [11]; 15 g ai/ha
  % damage Digitaria: 95%

## CCc1cc(CC)c(C2=C(O)C3(CCC(OC)CC3)NC2=O)c(CC)c1 (centres unmarked) [Example I-1-a-6]
[12]
  kill in %: 100%
Avena fatua [13]; 60 g ai/ha
  % damage Avena fatua: 80%
Alopecurus [3]; 60 g ai/ha
  % damage Alopecurus: 90%
Echinochloa [14]
  % damage Echinochloa: 90%
Sorghum; 125 g ai/ha
  % damage Sorghum: 100%
Lolium [15]; 125 g ai/ha
  % damage Lolium: 80%
Setaria [10]; 125 g ai/ha
  % damage Setaria: 95%
Digitaria [11]; 125 g ai/ha
  % damage Digitaria: 95%

## CCc1cc(C)cc(C)c1C1=C(OC(=O)C(C)(C)C)C2(CCCCC2)OC1=O [Example I-2-b-9]
White fly Bemisia tabaci
  kill in %: 100%
[6]
  kill in %: 100%

## CCc1cc(C)cc(C)c1C1=C(O)C(C)(C)NC1=O [Example I-1-a-8]
Lolium [1]; 60 g ai/ha
  % damage Lolium: 100%
Soya bean; 60 g ai/ha
  % damage Soya bean: 0%
Bromus; 60 g ai/ha
  % damage Bromus: 100%
Sugar beet [2]; 60 g ai/ha
  % damage Sugar beet: 0%
Avena fatua [13]; 60 g ai/ha
  % damage Avena fatua: 90%
Maize; 60 g ai/ha
  % damage Maize: 10%
Alopecurus [3]; 60 g ai/ha
  % damage Alopecurus: 100%
Wheat [16]
  % damage Wheat: 0%
Setaria [4]; 60 g ai/ha
  % damage Setaria: 100%
[6]
  kill in %: 100%
Sorghum; 60 g ai/ha
  % damage Sorghum: 95%
Sugar beet [7]; 60 g ai/ha
  % damage Sugar beet: 10%
Echinochloa [17]; 60 g ai/ha
  % damage Echinochloa: 100%
Cotton; 60 g ai/ha
  % damage Cotton: 0%
Setaria [10]; 60 g ai/ha
  % damage Setaria: 100%
Digitaria [11]; 60 g ai/ha
  % damage Digitaria: 95%
[18]
  kill in %: 100%

## C=Cc1cc(C)c(C2=C(OC(=O)C(C)(C)C)C3(CCC(OC)CC3)OC2=O)c(C)c1 (centres unmarked) [Example I-2-b-5]
[12]
  kill in %: 100%

## CCc1cc(CC)c(C2=C(OC(=O)C(C)CC)C3(CCC(OC)CC3)OC2=O)c(CC)c1 (centres unmarked) [Example I-2-b-11]
[19]
  kill in %: 100%

## CCc1cc(C)cc(C)c1C1=C(O)C2(CCC(OC)CC2)OC1=O (centres unmarked) [Example I-2-a-4]
[19]
  kill in %: 100%
[12]
  kill in %: 100%
White fly Bemisia tabaci
  kill in %: 100%
Lolium [1]; 125 g ai/ha
  % damage Lolium: 100%
Soya bean; 125 g ai/ha
  % damage Soya bean: 0%
Bromus; 125 g ai/ha
  % damage Bromus: 70%
Sugar beet [2]; 125 g ai/ha
  % damage Sugar beet: 0%
Avena fatua [13]; 125 g ai/ha
  % damage Avena fatua: 80%
Maize; 125 g ai/ha
  % damage Maize: 5%
Alopecurus [3]; 125 g ai/ha
  % damage Alopecurus: 100%
Setaria [4]; 125 g ai/ha
  % damage Setaria: 100%
[6]
  kill in %: 100%
Sorghum; 60 g ai/ha
  % damage Sorghum: 80%
Lolium [15]; 60 g ai/ha
  % damage Lolium: 95%
Avena fatua [8]; 60 g ai/ha
  % damage Avena fatua: 80%
Alopecurus [9]; 60 g ai/ha
  % damage Alopecurus: 95%
Wheat [20]; 60 g ai/ha
  % damage Wheat: 0%
Cotton; 60 g ai/ha
  % damage Cotton: 0%

## CCc1cc(C)cc(C)c1-c1c(O)c(C)c(-c2ccc(F)cc2)oc1=O [Example I-4-a-1]
[19]
  kill in %: 100%
[12]
  kill in %: 100%
[21]
  kill in %: 100%
Lolium [1]; 125 g ai/ha
  % damage Lolium: 100%
Soya bean; 125 g ai/ha
  % damage Soya bean: 0%
Sugar beet [2]; 125 g ai/ha
  % damage Sugar beet: 0%
Alopecurus [3]; 125 g ai/ha
  % damage Alopecurus: 100%
Veronica
  % damage Veronica: 95%
Setaria [4]; 125 g ai/ha
  % damage Setaria: 100%
Digitaria [5]
  % damage Digitaria: 100%
[6]
  kill in %: 100%
Sorghum; 125 g ai/ha
  % damage Sorghum: 90%
Sugar beet [7]; 125 g ai/ha
  % damage Sugar beet: 0%
Wheat [20]; 125 g ai/ha
  % damage Wheat: 20%
Echinochloa [17]; 125 g ai/ha
  % damage Echinochloa: 90%
Cotton; 125 g ai/ha
  % damage Cotton: 0%
Setaria [10]; 125 g ai/ha
  % damage Setaria: 95%
Digitaria [11]; 125 g ai/ha
  % damage Digitaria: 100%
[18]
  kill in %: 100%

From patent US7915282B2, “C2-phenyl-substituted cyclic keto-enols used as pesticides and herbicides” (Bayer Aktiengesellschaft, priority 2000, dated 2011)
